We go through 32 molecules from US20240122180A1, “FUNGICIDAL HALOMETHYL KETONES AND HYDRATES AND THEIR MIXTURES” (FMC Corporation, priority 2020, published 2024).

The subject of test [1] is Phakopsora pachyrhizi (the causal agent of Asian soybean rust). Put plainly: Test A: preventive spray on soybean seedlings, visual disease rating (100 = 100% control; * 50 ppm, ** 10 ppm, *** 250 ppm). It is filed as in vivo. The conditions noted are these: 100 = 100% disease control. The text has this: (§1) General protocol for preparing test suspensions for Tests A-E: the test compounds were first dissolved in acetone in an amount equal to 3% of the final volume and then suspended at the desired concentration (in ppm) in acetone and purified water (50/50 mix by volume) containing 250 ppm of the surfactant […] (polyhydric alcohol esters). The resulting test suspensions were then used in Tests A-E.
The test solution was sprayed to the point of run-off on soybean seedlings. The following day the seedlings were inoculated with a spore suspension of Phakopsora pachyrhizi (the causal agent of Asian soybean rust) and incubated in a saturated atmosphere at 22° C. for 24 h, and then moved to a growth chamber at 22° C. for 8 days, after which time visual disease ratings were made.
(§2) Results for Tests A-E are given in Table A. In the Table, a rating of 100 indicates 100% disease control and a rating of 0 indicates no disease control (relative to the controls). An asterisk “*” or a double asterisk “**” or a triple asterisk “***” next to the rating value indicates a 50 ppm, 10 ppm and 250 ppm test suspension was used, respectively. A dash (-) indicates the compound was not tested.

The test system of test [2] is Puccinia recondita f. sp. tritici (the causal agent of wheat leaf rust). Put plainly: Test B: preventive spray on wheat seedlings, disease rating (100 = 100% control; * 50 ppm, ** 10 ppm, *** 250 ppm). It is filed as in vivo. The settings on record: 100 = 100% disease control; for pest or weed control at 50 ppm / pest or weed control at 10 ppm: Puccinia recondita.
From the text: as §1
The test solution was sprayed to the point of run-off on wheat seedlings. The following day the seedlings were inoculated with a spore suspension of Puccinia recondita f. sp. tritici (the causal agent of wheat leaf rust) and incubated in a saturated atmosphere at 20° C. for 24 h, and then moved to a growth chamber at 20° C. for 6 days, after which time disease ratings were made.
as §2

Setting [3] is: 10 ppm test suspension, soybean seedlings.
[4] abbreviates: 10 ppm test suspension, wheat seedlings.
[5] abbreviates: 10 ppm test suspension, 0 = no control.
Setting [6] is: 50 ppm test suspension, wheat seedlings.
Where [7] appears, read: 50 ppm test suspension, 0 = no control.

Turning to `CCOC(=O)c1cc(OC)n(Cc2ccc(O/C=C(\OCC)C(F)(F)F)cc2)n1` [compound 90], in test [1] (setting [3]), the “Test A disease control rating” value came out at 100%. The “Test B disease control rating” value in test [2] (setting [4]) amounted to 0%.
With `CCOC(=O)c1cnn(Cc2ccc(OCC3(C(F)(F)F)OC(=O)C(C)O3)cc2)c1` (stereo not drawn) [compound 187], in test [1] (setting [3]), the “Test A disease control rating” value was determined as 93%. For the same molecule, in test [2] (setting [4]), the “Test B disease control rating” value is given as 74%.
On the same counts, the results for `COC(=O)c1cnn(Cc2ccc(OCC(O)(O)C(F)(F)F)cc2)c1` [compound 37] are 99% and 86%.
On the same counts, the results for `CCOC(=O)NCc1ccc(O/C=C(\OCC)C(F)(F)F)cc1` [compound 111] are 0% and 0%.
Take `CCO/C(=C\Oc1ccc(Cn2ccc(C(=O)OCCCCl)n2)cc1)C(F)(F)F` [compound 362]: the “Test A disease control rating” value in test [1] (setting [5]) worked out at 100%. Further, the “Test B disease control rating” value in test [2] (setting [5]) is reported as 0%.
On to `CON(Cc1ccc(OCC2(C(F)(F)F)OCCO2)cc1)C(=O)C(C)C` [compound 235], for which, in test [1] (setting [3]), the “Test A disease control rating” value is on record as 97%. For the same molecule, in test [2] (setting [4]), the “Test B disease control rating” value is 0%.
On the same counts, the results for `CCO/C(=C\Oc1ccc(CN2CCCC2=O)cc1)C(F)(F)F` [compound 224] are 0% and 0%.
One may read the pest or weed control as how far the test organism was held down. A lower pest or weed control goes with a weak effect. The molecule `N#Cc1cccc(OCC2(C(F)(F)F)OCCO2)c1` [compound 147] registered a pest or weed control at 50 ppm in test [2] (setting [6]) of 0%.
On to `CN(C)C(=O)C1=NOC(c2ccc(OCC(O)(O)C(F)(F)F)cc2)C1` (stereo not drawn) [compound 41], for which the “Test A disease control rating” value in test [1] (setting [3]) is reported as 92%. The “Test B disease control rating” value in test [2] (setting [4]) is 23%.
As to `CCOC(=O)c1cnn(Cc2ccc(O/C=C(\OCC#N)C(F)(F)F)cc2)c1` [compound 400], the “Test A disease control rating” value in test [1] (setting [7]) is 100%. In test [2] (setting [7]), the “Test B disease control rating” value is reported as 0%.
On the same counts, the results for `CCOC(=COc1ccc(NC(=O)C2CC2)cc1)C(F)(F)F` [compound 371] are 0% and 77%.
With `CCCOC(=O)c1cnn(Cc2cccc(O/C=C(\OCC)C(F)(F)F)c2)c1` [Compound 331, propyl 1-[[3-[[(1Z)-2-ethoxy-3,3,3-trifluoro-1-propen-1-yl]oxy]phenyl]methyl]-1H-pyrazole-4-carboxylate], the pest or weed control at 10 ppm in test [2] (setting [5]) worked out at 0%.
In turn, `O=C(OCC1CC1)c1cnn(Cc2ccc(OCC3(C(F)(F)F)OCCO3)cc2)c1` [Compound 127, cyclopropylmethyl 1-[[4-[[2-(trifluoromethyl)-1,3-dioxolan-2-yl]methoxy]phenyl]methyl]-1H-pyrazole-4-carboxylate] yielded a pest or weed control at 10 ppm in test [2] (setting [4]) of 0%.
For the molecule `CCOC(=O)c1cnn(Cc2ccc(O/C=C(\OCC)C(F)(F)F)cc2)c1` [compound 298], the “Test A disease control rating” value in test [1] (setting [5]) is 0%. Moreover, in test [2] (setting [5]), the “Test B disease control rating” value is listed as 0%.
Take `CCO/C(=C\Oc1ccc(CSC#N)cc1)C(F)(F)F` [compound 155]: the “Test A disease control rating” value in test [1] (setting [3]) is 0%. Besides, the “Test B disease control rating” value in test [2] (setting [4]) amounted to 0%.
For the molecule `CCO/C(=C\Oc1ccc(Cn2ncnc2SC)cc1)C(F)(F)F` [compound 260], the “Test A disease control rating” value in test [1] (setting [5]) worked out at 0%. Besides, in test [2] (setting [5]), the “Test B disease control rating” value was 0%.
For `CCO/C(=C\Oc1cccc(Cn2cc(C(=O)NC3CCCC3)cn2)c1)C(F)(F)F` [compound 390], in test [1] (setting [7]), the “Test A disease control rating” value turned out to be 0%.
For the molecule `CCOC(=O)c1cnn(Cc2ccc(O/C=C(\OCC)C(F)(F)F)c(F)c2)c1` [Compound 262, ethyl 1-[[4-[[(1Z)-2-ethoxy-3,3,3-trifluoro-1-propen-1-yl]oxy]-3-fluorophenyl]methyl]-1H-pyrazole-4-carboxylate], the pest or weed control at 10 ppm in test [2] (setting [5]) is 0%.
Still for that read-out and setting: under `O=Cc1cccc(OCC(O)(O)C(F)(F)F)c1` [compound 305] stands 0%.
The molecule `CCOC(=O)c1cnn(Cc2ccc(OCC3(C(F)(F)F)OCC(C)(C)O3)cc2)c1` (stereo not drawn) [Compound 12, ethyl 1-[[4-[[4,4-dimethyl-2-(trifluoromethyl)-1,3-dioxolan-2-yl]methoxy]-phenyl]methyl]-1H-pyrazole-4-carboxylate] came in with a pest or weed control at 10 ppm in test [2] (setting [4]) of 0%.
Still for that read-out and setting: then `CC(C)COC(=O)c1cnn(Cc2ccc(OCC3(C(F)(F)F)OCCO3)cc2)c1` [Compound 126, 2-methylpropyl 1-[[4-[[2-(trifluoromethyl)-1,3-dioxolan-2-yl]methoxy]phenyl]methyl]-1H-pyrazole-4-carboxylate], with 0%; and `CCOC(=O)c1ccn(Cc2ccc(O/C=C(\OCC)C(F)(F)F)cc2)n1` [Compound 231, ethyl 1-[[4-[[(1Z)-2-ethoxy-3,3,3-trifluoro-1-propen-1-yl]oxy]phenyl]methyl]-1H-pyrazole-3-carboxylate], with 0%.
As for `CCOC(=O)c1cnn(Cc2cccc(OCC3(C(F)(F)F)OCCO3)c2)c1` [compound 146], the pest or weed control at 50 ppm in test [2] (setting [6]) was 0%.
On to `CCO/C(=C\Oc1cccc(Cn2cc(C(=O)NC3CC3)cn2)c1)C(F)(F)F` [compound 391], for which the “Test A disease control rating” value in test [1] (setting [7]) is recorded as 0%.
Molecule `O=[N+]([O-])c1cccc(OCC2(C(F)(F)F)OCCO2)c1` [compound 165] showed a pest or weed control at 10 ppm in test [2] (setting [4]) of 0%.
Same read-out and setting: then `CCOC(=O)c1cnn(CCc2ccc(O/C=C(\OCC)C(F)(F)F)cc2)c1` [Compound 132, ethyl 1-[2-[4-[[(1Z)-2-ethoxy-3,3,3-trifluoro-1-propen-1-yl]oxy]phenyl]ethyl]-1H-pyrazole-4-carboxylate], with 0%; and `COCCOC(=O)c1cnn(Cc2ccc(OCC3(C(F)(F)F)OCCO3)cc2)c1` [Compound 162, 2-methoxyethyl 1-[[4-[[2-(trifluoromethyl)-1,3-dioxolan-2-yl]methoxy]phenyl]methyl]-1H-pyrazole-4-carboxylate], with 0%.
Molecule `CC#CCOC(=O)c1cnn(Cc2ccc(OCC3(C(F)(F)F)OCCO3)cc2)c1` [Compound 163, 2-butyn-1-yl 1-[[4-[[2-(trifluoromethyl)-1,3-dioxolan-2-yl]methoxy]phenyl]methyl]-1H-pyrazole-4-carboxylate] had a pest or weed control at 10 ppm in test [2] (setting [4]) of 0%.
In test [2] (setting [7]), `CCOC(=O)c1cnn(Cc2cccc(OCC(O)(O)C(F)(F)F)c2)c1` [Compound 266, ethyl 1-[[3-(3,3,3-trifluoro-2,2-dihydroxypropoxy)phenyl]methyl]-1H-pyrazole-4-carboxylate] showed a pest or weed control at 50 ppm of 74%.
In the case of `CCOC(=O)c1cnn(COCc2ccc(O/C=C(\OCC)C(F)(F)F)cc2)c1` [Compound 297, ethyl 1-[[4-[[(1Z)-2-ethoxy-3,3,3-trifluoro-1-propen-1-yl]oxy]phenylmethoxy]methyl]-1H-pyrazole-4-carboxylate], the pest or weed control at 10 ppm in test [2] (setting [5]) was determined as 0%.
Regarding `N#CCCCOC(=O)c1cnn(Cc2ccc(OCC3(C(F)(F)F)OCCO3)cc2)c1` [Compound 171, 3-cyanopropyl 1-[[4-[[2-(trifluoromethyl)-1,3-dioxolan-2-yl]methoxy]phenyl]methyl]-1H-pyrazole-4-carboxylate], the pest or weed control at 10 ppm in test [2] (setting [4]) came to 0%.
`CCO/C(=C\Oc1cccc(Cn2cc(C(=O)OC)cn2)c1)C(F)(F)F` [Compound 330, methyl 1-[[3-[[(1Z)-2-ethoxy-3,3,3-trifluoro-1-propen-1-yl]oxy]phenyl]methyl]-1H-pyrazole-4-carboxylate] showed a pest or weed control at 10 ppm in test [2] (setting [5]) of 0%.
